Molecules are shown by their SMILES. Several values for one entry are separate records, joined by “and”; a condition that tells them apart may be missing. Equal entries are not always repeated.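 Grown in 96-well plates, cells were treated for 48 hours with each compound at five concentrations. Insufficient inhibition: endpoint recorded as highest concentration tested. Here, GI50 denotes the concentration required for 50% inhibition of growth. Definition used: TGI = concentration required for complete inhibition of growth.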

Among the test systems are PC-3 prostate; NCI-H522 lung; MDA-MB-435; MOLT-4 leukemia; TK-10 renal; OVCAR-8 ovarian; SK-OV-3 ovarian; SN12C renal; OVCAR-4 ovarian; OVCAR-3 ovarian.
Common to all, as to assay: NCI anticancer screen, dose series, 48 h

Regarding `COc1cc(C2CC(c3ccc4c(c3)OCO4)=NN2C(C)=O)cc(OC)c1OC` (stereo not given), the GI50 is 4.39 µM in the assay with PC-3 prostate; 0.382 µM with NCI-H522 lung; 0.183 µM with MDA-MB-435; 1.05 µM in the assay on MOLT-4 leukemia; 7.59 µM in the assay on TK-10 renal; 5.51 µM in the assay with OVCAR-8 ovarian. The GI50 in the assay with SK-OV-3 ovarian was 0.972 µM; with SN12C renal, 7.48 µM; in the assay with OVCAR-4 ovarian, 5.45 µM; in the assay with OVCAR-3 ovarian, 0.297 µM. Further, the TGI in the assay on PC-3 prostate is > 100 µM; in the assay on MDA-MB-435 it was 0.674 µM; in the assay on MOLT-4 leukemia it was > 50.5 µM; with TK-10 renal, > 100 µM; in the assay with OVCAR-8 ovarian, > 100 µM; in the assay on SK-OV-3 ovarian, > 65.8 µM. For the same compound, the TGI in the assay on SN12C renal was > 100 µM; with OVCAR-4 ovarian it was > 100 µM; in the assay on OVCAR-3 ovarian it was 0.808 µM.

As to `Oc1ccc(/C=N/Nc2nc3ccccc3s2)c(O)c1`, the GI50 was 4 µM in the assay on PC-3 prostate; 1.39 µM in the assay with NCI-H522 lung; 3.08 µM with MDA-MB-435; 2.24 µM with MOLT-4 leukemia; 2.1 µM in the assay with TK-10 renal; 1.65 µM with OVCAR-8 ovarian. The GI50 in the assay on SK-OV-3 ovarian is 2.14 µM; with SN12C renal, 2.09 µM; in the assay with OVCAR-4 ovarian, 0.381 µM; in the assay on OVCAR-3 ovarian, 1.92 µM. The TGI was > 100 µM in the assay with PC-3 prostate; 6.11 µM in the assay with NCI-H522 lung; > 100 µM in the assay on MDA-MB-435; 88.1 µM in the assay on MOLT-4 leukemia; 45.2 µM in the assay with TK-10 renal; > 100 µM in the assay with OVCAR-8 ovarian. For the same compound, the TGI amounted to 8.93 µM in the assay on SK-OV-3 ovarian, 57.9 µM with SN12C renal, 2.93 µM in the assay on OVCAR-4 ovarian and 12.8 µM in the assay with OVCAR-3 ovarian.

As for `O=C1C=CN(C2OC(CO)C(O)C2O)C(=O)C1` (stereo not given), the TGI was > 2500 µM with PC-3 prostate; > 2320 µM in the assay with NCI-H522 lung; > 2500 µM with MDA-MB-435; 476 µM in the assay with MOLT-4 leukemia; > 2500 µM with TK-10 renal; 625 µM and > 2500 µM in the assay with OVCAR-8 ovarian. The TGI was 625 µM and > 2320 µM in the assay on SK-OV-3 ovarian; > 2500 µM in the assay with OVCAR-4 ovarian; > 1870 µM with OVCAR-3 ovarian. In addition, the GI50 with NCI-H522 lung is > 625 µM and 518 µM; in the assay with OVCAR-8 ovarian, 72.6 µM and 42.7 µM; with SK-OV-3 ovarian it was 580 µM; with SN12C renal, 1.34 µM; in the assay on OVCAR-4 ovarian it was > 625 µM and 953 µM.

Turning to `COC(=O)[C@@H](Cc1c[nH]c2ccccc12)NC(=O)/C=C/c1ccccc1`, the GI50 in the assay with PC-3 prostate was 3.22 µM; in the assay with NCI-H522 lung, 1.81 µM; in the assay on MDA-MB-435, 0.782 µM; with MOLT-4 leukemia, 3.57 µM; in the assay on TK-10 renal, 17.9 µM; in the assay on OVCAR-8 ovarian, 3.6 µM. The GI50 in the assay on SK-OV-3 ovarian was 3.15 µM; in the assay on SN12C renal it was 4.49 µM; with OVCAR-4 ovarian it was 5.71 µM; with OVCAR-3 ovarian, 2.83 µM. Further, the TGI is 68.2 µM in the assay with PC-3 prostate; 30.5 µM in the assay with NCI-H522 lung; 3.91 µM with MDA-MB-435; > 100 µM in the assay with MOLT-4 leukemia; > 100 µM in the assay with TK-10 renal; > 100 µM in the assay with OVCAR-8 ovarian. Moreover, the TGI with SK-OV-3 ovarian was > 100 µM; in the assay on SN12C renal, > 100 µM; with OVCAR-4 ovarian it was > 100 µM; with OVCAR-3 ovarian, 7.78 µM.

In the case of `C=C1CC2(OC1=O)c1ccccc1C=Cc1ccccc12`, the TGI in the assay on PC-3 prostate amounted to 16.3 µM; in the assay on NCI-H522 lung it was 3.35 µM; in the assay on MDA-MB-435 it was 3.37 µM; in the assay on MOLT-4 leukemia, 5.4 µM; in the assay on TK-10 renal it was 11.1 µM; in the assay with OVCAR-8 ovarian, 11.7 µM. In addition, the TGI was 30.8 µM with SK-OV-3 ovarian, 7.14 µM with SN12C renal, 11.7 µM in the assay on OVCAR-4 ovarian and 8.9 µM with OVCAR-3 ovarian.

Consider `CC(C)c1cc(CNc2nc(Nc3cc(C4CC4)[nH]n3)cc(N3CCN(C)CC3)n2)on1`, for which the TGI with PC-3 prostate was > 10 µM and 7.02 µM; in the assay on NCI-H522 lung, 4.3 µM and 3.83 µM; with MDA-MB-435, > 10 µM and 5.54 µM; in the assay on MOLT-4 leukemia, > 10 µM and 8.44 µM; in the assay on TK-10 renal, 4.19 µM and 5.52 µM; in the assay with OVCAR-8 ovarian, > 10 µM and 14.8 µM. Moreover, the TGI in the assay on SK-OV-3 ovarian was 4.45 µM and 5.4 µM; with SN12C renal, > 10 µM and 15.1 µM; in the assay with OVCAR-4 ovarian it was > 10 µM and 4.57 µM; with OVCAR-3 ovarian, > 10 µM and 4.1 µM. The GI50 with NCI-H522 lung is 0.422 µM and 0.992 µM; in the assay on MOLT-4 leukemia it was 2.71 µM and 0.477 µM; with TK-10 renal it was 0.53 µM and 0.277 µM; in the assay with OVCAR-8 ovarian, 3.27 µM and 0.42 µM; in the assay with SK-OV-3 ovarian it was 0.904 µM and 0.335 µM; in the assay with OVCAR-4 ovarian, 2.14 µM and 0.731 µM. The GI50 in the assay with OVCAR-3 ovarian is 2.14 µM and 0.256 µM.

Take `CC12CCc3ccccc3C1=Nc1ccccc12` (stereo not given): the TGI with PC-3 prostate was > 100 µM; in the assay on NCI-H522 lung, > 100 µM; in the assay on MDA-MB-435 it was 82.6 µM; with MOLT-4 leukemia, 58.5 µM; in the assay on TK-10 renal, > 100 µM; with OVCAR-8 ovarian it was > 100 µM. Further, the TGI is > 100 µM in the assay with SK-OV-3 ovarian, 43.7 µM in the assay with SN12C renal, > 100 µM in the assay with OVCAR-4 ovarian and 66.5 µM in the assay with OVCAR-3 ovarian.

`O=C(NCCCNC(=O)OCc1ccc2c(Br)cc(Br)c(O)c2n1)OCc1ccc2c(Br)cc(Br)c(O)c2n1`: the GI50 with PC-3 prostate, in the assay with NCI-H522 lung, in the assay with MDA-MB-435, in the assay on MOLT-4 leukemia, with TK-10 renal and with OVCAR-8 ovarian was > 100 µM each time. In addition, the GI50 with SK-OV-3 ovarian, with SN12C renal, in the assay with OVCAR-4 ovarian and with OVCAR-3 ovarian was > 100 µM each time. Further, the TGI with PC-3 prostate, in the assay with NCI-H522 lung, in the assay on MDA-MB-435, in the assay with MOLT-4 leukemia, with TK-10 renal and in the assay on OVCAR-8 ovarian was > 100 µM in each case. Further, the TGI in the assay with SK-OV-3 ovarian, with SN12C renal, with OVCAR-4 ovarian and with OVCAR-3 ovarian was > 100 µM in each case.

Values taken from PubChem BioAssay (NCI).
